In the NIST ThermoML archive (doi:10.1021/je034087q):

Test: xn = mol fraction of the nth substance listed
Conditions: Fluid (supercritical or subcritical phases)

CC(C)=O [acetone] + O=C=O
Conditions | mass density [kg/m3]
335.15 K, 10350 kPa, x2 = 0.909 | 583
335.15 K, 10420 kPa, x2 = 0.909 | 589
335.15 K, 10500 kPa, x2 = 0.909 | 593
335.15 K, 10590 kPa, x2 = 0.909 | 599
335.15 K, 10680 kPa, x2 = 0.909 | 604
335.15 K, 10780 kPa, x2 = 0.909 | 611
335.15 K, 10890 kPa, x2 = 0.909 | 616
335.15 K, 11020 kPa, x2 = 0.909 | 623
335.15 K, 11150 kPa, x2 = 0.909 | 628
335.15 K, 11280 kPa, x2 = 0.909 | 635
335.15 K, 11440 kPa, x2 = 0.909 | 640
335.15 K, 11600 kPa, x2 = 0.909 | 648
335.15 K, 11790 kPa, x2 = 0.909 | 653
335.15 K, 12010 kPa, x2 = 0.909 | 661
335.15 K, 12240 kPa, x2 = 0.909 | 667
335.15 K, 12460 kPa, x2 = 0.909 | 675
335.15 K, 12750 kPa, x2 = 0.909 | 681
335.15 K, 13080 kPa, x2 = 0.909 | 691
335.15 K, 13400 kPa, x2 = 0.909 | 697
335.15 K, 13770 kPa, x2 = 0.909 | 706
335.15 K, 14150 kPa, x2 = 0.909 | 711
335.15 K, 14600 kPa, x2 = 0.909 | 721
336.35 K, 9960 kPa, x2 = 0.902 | 531
336.35 K, 10000 kPa, x2 = 0.902 | 535
336.35 K, 10030 kPa, x2 = 0.902 | 538
336.35 K, 10080 kPa, x2 = 0.902 | 542
336.35 K, 10110 kPa, x2 = 0.902 | 545
336.35 K, 10150 kPa, x2 = 0.902 | 547
336.35 K, 10190 kPa, x2 = 0.902 | 551
336.35 K, 10230 kPa, x2 = 0.902 | 555
336.35 K, 10260 kPa, x2 = 0.902 | 558
336.35 K, 10310 kPa, x2 = 0.902 | 561
336.35 K, 10360 kPa, x2 = 0.902 | 566
336.35 K, 10390 kPa, x2 = 0.902 | 569
336.35 K, 10450 kPa, x2 = 0.902 | 573
336.35 K, 10540 kPa, x2 = 0.902 | 579
336.35 K, 10610 kPa, x2 = 0.902 | 583
336.35 K, 10710 kPa, x2 = 0.902 | 590
336.35 K, 10810 kPa, x2 = 0.902 | 595
336.35 K, 10910 kPa, x2 = 0.902 | 602
336.35 K, 11020 kPa, x2 = 0.902 | 606
336.35 K, 11100 kPa, x2 = 0.902 | 611
336.35 K, 11200 kPa, x2 = 0.902 | 616
336.35 K, 11320 kPa, x2 = 0.902 | 620
336.35 K, 11420 kPa, x2 = 0.902 | 625
336.35 K, 11570 kPa, x2 = 0.902 | 631
336.35 K, 11700 kPa, x2 = 0.902 | 638
336.35 K, 11790 kPa, x2 = 0.902 | 641
336.35 K, 11950 kPa, x2 = 0.902 | 645
336.35 K, 12080 kPa, x2 = 0.902 | 649
336.35 K, 12210 kPa, x2 = 0.902 | 654
336.35 K, 12400 kPa, x2 = 0.902 | 659
336.35 K, 12570 kPa, x2 = 0.902 | 663
336.35 K, 12710 kPa, x2 = 0.902 | 668
336.35 K, 12940 kPa, x2 = 0.902 | 673
336.35 K, 13140 kPa, x2 = 0.902 | 678
336.35 K, 13320 kPa, x2 = 0.902 | 684
336.35 K, 13580 kPa, x2 = 0.902 | 688
336.35 K, 13900 kPa, x2 = 0.902 | 694
336.35 K, 14180 kPa, x2 = 0.902 | 701
336.35 K, 14450 kPa, x2 = 0.902 | 706
336.35 K, 14700 kPa, x2 = 0.902 | 710
336.35 K, 14920 kPa, x2 = 0.902 | 715
338.15 K, 10080 kPa, x2 = 0.902 | 511
338.15 K, 10110 kPa, x2 = 0.902 | 515
338.15 K, 10180 kPa, x2 = 0.902 | 520
338.15 K, 10230 kPa, x2 = 0.902 | 524
338.15 K, 10280 kPa, x2 = 0.902 | 529
338.15 K, 10340 kPa, x2 = 0.902 | 533
338.15 K, 10380 kPa, x2 = 0.902 | 538
338.15 K, 10430 kPa, x2 = 0.902 | 542
338.15 K, 10500 kPa, x2 = 0.902 | 548
338.15 K, 10560 kPa, x2 = 0.902 | 552
338.15 K, 10640 kPa, x2 = 0.902 | 558
338.15 K, 10710 kPa, x2 = 0.902 | 563
338.15 K, 10780 kPa, x2 = 0.902 | 569
338.15 K, 10860 kPa, x2 = 0.902 | 573
338.15 K, 10910 kPa, x2 = 0.902 | 581
338.15 K, 10980 kPa, x2 = 0.902 | 584
338.15 K, 11080 kPa, x2 = 0.902 | 590
338.15 K, 11200 kPa, x2 = 0.902 | 595
338.15 K, 11280 kPa, x2 = 0.902 | 600
338.15 K, 11350 kPa, x2 = 0.902 | 603
338.15 K, 11420 kPa, x2 = 0.902 | 606
338.15 K, 11510 kPa, x2 = 0.902 | 610
338.15 K, 11590 kPa, x2 = 0.902 | 615
338.15 K, 11630 kPa, x2 = 0.902 | 616
338.15 K, 11710 kPa, x2 = 0.902 | 619
338.15 K, 11790 kPa, x2 = 0.902 | 622
338.15 K, 11880 kPa, x2 = 0.902 | 627
338.15 K, 11950 kPa, x2 = 0.902 | 629
338.15 K, 12040 kPa, x2 = 0.902 | 632
338.15 K, 12110 kPa, x2 = 0.902 | 634
338.15 K, 12240 kPa, x2 = 0.902 | 640
338.15 K, 12330 kPa, x2 = 0.902 | 642
338.15 K, 12460 kPa, x2 = 0.902 | 646
338.15 K, 12570 kPa, x2 = 0.902 | 651
338.15 K, 12700 kPa, x2 = 0.902 | 654
338.15 K, 12880 kPa, x2 = 0.902 | 659
338.15 K, 13010 kPa, x2 = 0.902 | 663
338.15 K, 13200 kPa, x2 = 0.902 | 668
338.15 K, 13320 kPa, x2 = 0.902 | 671
338.15 K, 13480 kPa, x2 = 0.902 | 675
338.15 K, 13710 kPa, x2 = 0.902 | 680
338.15 K, 13860 kPa, x2 = 0.902 | 684
338.15 K, 14080 kPa, x2 = 0.902 | 689
338.15 K, 14300 kPa, x2 = 0.902 | 693
338.15 K, 14560 kPa, x2 = 0.902 | 699
338.15 K, 14780 kPa, x2 = 0.902 | 700
338.15 K, 15010 kPa, x2 = 0.902 | 705
